From patent publication US20230271956A1, “AMIDE DERIVATIVES” (Merck Patent GmbH, priority 2020, published 2023)

Assays:
human rec ACSS2 = biological target: T1, human rec ACSS2 (Homo sapiens, UniProt Q9NR19); assay: Biochemical activity ACSS2 assay (AMP-Glo); conditions: human recombinant ACSS2, AMP-Glo, 180 min at 37° C.
T1 construct: myc (C); purchased Origene
How it was run: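 C-terminal myc-tagged human recombinant ACSS2 (1 nM) reacted with 100 µM ATP, 100 µM CoA and 500 µM acetate (final) in pH 7.5 Hepes buffer for 180 min at 37° C, compound in 10 concentrations from 30 µM. Released AMP detected by AMP-Glo luminescence. IC50 normalised to inhibitor-free reaction and 5 µM reference inhibitor.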

ACSS2 [1] = biological target: T2, ACSS2 (Homo sapiens, UniProt Q9NR19); assay: Cellular assay of 14C acetate incorporation into histones (IC50 ACSS2 cellular histone); format: cell-based; conditions: HCT-15 cells
T2 construct: endogenous fatty acid synthesis activity in the human HCT-15 cancer cell line; endogenous in cells; host or cells: HCT-15
How it was run: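 Human HCT-15 cells preincubated 1 h with compound (0.25% DMSO final), then pulsed 3 h with 14C-acetate. Histones were acid-extracted (0.2 M HCl, overnight, 4° C) after Triton lysis in sodium-butyrate buffer; incorporated 14C counted by liquid scintillation (CPM) to give IC50.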

CHO-K1 cells = assay: Micronucleus assay (MNT) in vitro; format: cell-based; design: key: A: negative, putative negative (micronuclei detected beyond threshold of 60% cyctotoxicity); B: positive; conditions: 24 hrs treatment, 0.2 µM to 100 µM
Experimental: The in vitro MNT assay is performed in CHO-K1 cells due to their stable and welI-characterized karyotype, high sensitivity and suitability for a high content imaging approach. They have a basal spontaneous micronucleus frequency of 3-4%.
24 hrs after plating CHO-K1 cells are treated with test compounds for 24 hrs (in duplicates; fixed concentration ranges from 0.2 µM to 100 µM in 2-fold dilution steps). After a medium change cells are incubated for 24 hrs with Cytochalasin B to block cytokinesis and are then fixed and nuclei / micronuclei visualized with a DNA stain. Images are acquired with the Molecular Devices high content imagers IXU or IXM and are analyzed with the dedicated MetaXpress software micronucleus module. Criteria for scoring of micronuclei (MN) are the following: • diameter of the MN should be less than ⅓ of the main nucleus • MN should be separated from or marginally overlap with main nucleus (= no blebs) • MN should have similar staining as the main nucleus At least 1000 binucleated cells are evaluated per treatment replicate. Mitomycin C is used as reference stimulator of micronucleus formation. Cytotoxicity is evaluated in parallel and defined by comparing total nuclei count in compound-treated samples to neutral control samples treated with vehicle only (1% DMSO) (100% cytotoxicity means all cells are dead or lost).
A test compound is regarded as POSITIVE if generation of micronuclei and exhibition of less than 60% cytotoxicity at the same concentration can be observed.
Compounds are scored only in the soluble concentration range. Experimental data of the compounds shown in Table 1 in the MNT assay are shown in Table 2 below and classified in the following groups: […]

ACSS2 [2] = biological target: T2, ACSS2; assay: Cellular assay of 14C acetate incorporation into fatty acids (IC50 ACSS2 cellular lipids); format: cell-based; conditions: HCT-15 cells
Experimental: This protocol describes a cellular assay capable to quantify endogenous fatty acid synthesis activity in the human HCT-15 cancer cell line following the incorporation of extracellularly administered radiolabeled ^14C acetate with a scintillation proximity based read out on extracted fatty acids.
HCT-15 cells were grown in RPMI 1640 (Gibco) supplemented with 2 mM glutamine, 1 mM sodium pyruvate 10 mM HEPES and 10 % FCS (heat-inactivated) passaged every 2-3 days to remain a subconfluent, vital culture. A working cell bank was prepared with each aliquot containing 1x10^7 viable cells. After thawing, these cells are dilute immediately 1:20 in pre-warmed (37° C.) culture medium. Cells are collected by centrifugation at 200 x g for 5 min, and the supernatant is replaced by 30 mL of fresh culture medium per aliquot to obtain a cell suspension containing 350000 cells/ml. From this cell suspension 100 µL are dispersed into each well of a collagen coated 96 well plate, (black, clear bottom, PS, F-bottom, Greiner) and culture for 24 h (37° C., 5% CO2). After incubation the culture medium is removed and the wells are washed once with 100 µL PBS++ (supplemented with Mg^2+/ Ca^2+, Gibco) and 50 µL assay medium (RPMI 1640 + 10 mM HEPES) are added to each well. Compounds serial dilutions are prepared from 10 mM stock solutions in DMSO using a fixed dilution factor (usually 1:3). After preparation of the dilution series in DMSO, the individual dilutions are further diluted in the assay medium. This working dilution is prepared such, that the concentration is 7x of the final concentration in the assay. The maximal DMSO concentration in the final assay is 0.1%.
To each well 10 µL compound working dilution or DMSO blank are added and the cells are cultured for 2 h (37° C., 5% CO2). Then 10 µL AlamarBlue reagent (Invitrogen) containing 14 µCi/mL ^14C-acetate (Perkin Elmer) are added to each well (70 µl total volume) and cells are again cultured for 2 h. Cell viability is verified by measuring the AlamarBlue fluorescence (Tecan Safire, ex: 544 nm / em: 590 nm). After incubation the culture medium is removed and the wells are carefully washed once with cold 100 µL PBS++. For cell lysis and fatty acid recovery 50 µl 0.1 M NaOH and 0.1 % Triton-X100 are added per well. The plate is sealed with PlateLoc (clear peelable heat seal, Agilent) and incubate at 70° C. for 16-24 h. After cooling to room temperature, the plates are centrifuged for 1 min at 1000 rpm and the plate seals are removed. For acidification 150 µL 0.1 M HCl are added to each well, mixed and 150 µL of the mixture are transferred into a 96 well FlashPlate (Perkin Elmer). The plates are sealed with TopSeaI-a (Perkin Elmer). To allow for the fatty acid binding to the well surfaces the plates are incubate for 4 h at 70° C. After cooling to room temperature, the plates are centrifuged for 1 min at 1000 rpm and stored for 0.5-2 h at room temperature in the dark. Radioactivity from ^14C incorporation into fatty acids in the wells is measured as CPM count in a MicroBeta scintillation counter (Perkin Elmer).

T2 sequence (Q9NR19 whole entry): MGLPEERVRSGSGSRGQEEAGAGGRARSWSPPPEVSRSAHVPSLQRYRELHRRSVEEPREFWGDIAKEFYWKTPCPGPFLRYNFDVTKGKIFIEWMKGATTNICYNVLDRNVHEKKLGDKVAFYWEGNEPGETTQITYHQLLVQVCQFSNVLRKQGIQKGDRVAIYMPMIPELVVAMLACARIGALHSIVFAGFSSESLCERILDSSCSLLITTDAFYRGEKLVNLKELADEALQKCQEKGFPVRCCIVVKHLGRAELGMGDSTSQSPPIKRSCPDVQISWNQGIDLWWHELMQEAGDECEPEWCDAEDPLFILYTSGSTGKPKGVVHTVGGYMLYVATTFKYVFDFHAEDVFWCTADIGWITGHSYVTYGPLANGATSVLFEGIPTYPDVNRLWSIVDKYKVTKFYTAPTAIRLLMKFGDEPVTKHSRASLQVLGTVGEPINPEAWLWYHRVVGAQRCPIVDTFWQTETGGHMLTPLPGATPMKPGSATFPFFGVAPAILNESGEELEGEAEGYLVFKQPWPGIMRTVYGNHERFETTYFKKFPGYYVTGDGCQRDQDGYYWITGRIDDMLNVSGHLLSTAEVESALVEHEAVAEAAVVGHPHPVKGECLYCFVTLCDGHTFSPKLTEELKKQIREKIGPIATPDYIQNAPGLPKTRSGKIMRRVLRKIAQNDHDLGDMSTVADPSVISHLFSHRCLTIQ
T1 sequence (Q9NR19 whole entry): as above

SMILES	IC50 (human rec ACSS2) [nM]	IC50 (ACSS2 [1]) [nM]	MNT (CHO-K1 cells)	IC50 (ACSS2 [2]) [nM]
CCc1c(C(O)(c2ccccc2F)c2ccccc2F)nn2cc(OC)c(C(=O)Nc3ncn(CC)n3)cc12 [Compound 7, 2-[Bis-(2-fluoro-phenyl)-hydroxy-methyl]-3-ethyl-6-methoxy-pyrazolo[1,5-a]pyridine-5-carboxylic acid (1-ethyl-1H-[1,2,4]triazol-3-yl)-amide]	1 to 10	1 to 10	A	
CCc1c(C(O)(c2ccccc2)c2ccccn2)nc2cc(OC)c(C(=O)Nc3ncn(CC)n3)cn12 (single isomer, unassigned) [Compound 18, 3-ethyl-N-(1-ethyl-1,2,4-triazol-3-yl)-2-[hydroxy-phenyl-(2-pyridyl)methyl]-7-methoxy-imidazo[1,2-a]pyridine-6-carboxamide]	100 to 10000	100 to 10000	A	
CCc1c(C(O)(c2ccccc2)c2ccn(C)n2)nc2cc(OC)c(C(=O)Nc3ncn(CC)n3)cn12 (single isomer, unassigned) [Compound 21, 3-Ethyl-2-[hydroxy-(1-methyl-1H-pyrazol-3-yl)-phenyl-methyl]-7-methoxy-imidazo[1,2-a]pyridine-6-carboxylic acid (1-ethyl-1H-[1,2,4]triazol-3-yl)-amide]	100 to 10000		A	
CCn1c(C(O)(c2ccccc2)c2ccccc2)nc2nc(OC)c(C(=O)Nc3ncn(CCOC)n3)cc21 [Compound 68, 1-ethyl-2-(hydroxydiphenylmethyl)-5-methoxy-N-[1-(2-methoxyethyl)-1H-1,2,4-triazol-3-yl]-1H-imidazo[4,5-b]pyridine-6-carboxamide]	10 to 100	10 to 100		100 to 10000
CCn1cc(NC(=O)c2cc3c(nc2C)nc(C(O)(c2ccccc2F)c2ccccc2F)n3CC)cn1 [Compound 107, 2-[bis(2-fluorophenyl)(hydroxy)methyl]-1-ethyl-N-(1-ethyl-1H-pyrazol-4-yl)-5-methyl-1H-imidazo[4,5-b]pyridine-6-carboxamide]	1 to 10	0.01 to 1		10 to 100
CCc1c(C(O)(c2ccccc2F)c2ccccc2F)nc2cc(Cl)c(C(=O)Nc3cnn(CC)c3)cn12 [Compound 29, 2-[Bis-(2-fluoro-phenyl)-hydroxy-methyl]-7-chloro-3-ethyl-imidazo[1,2-a]pyridine-6-carboxylic acid (1-ethyl-1H-pyrazol-4-yl)-amide]	10 to 100	10 to 100	A	
CCn1c(C(O)(c2ccccc2)c2ccccn2)nc2nc(OC)c(C(=O)Nc3ncn(CCOC)n3)cc21 (racemic) [Compound 65, 1-ethyl-2-[hydroxy(phenyl)(pyridin-2-yl)methyl]-5-methoxy-N-[1-(2-methoxyethyl)-1H-1,2,4-triazol-3-yl]-1H-imidazo[4,5-b]pyridine-6-carboxamide]	100 to 10000	1 to 10		10 to 100
CCn1cnc(NC(=O)c2cc3c(nc2OC)nc(C(O)(c2ccccc2)c2ccccn2)n3CC)n1 (racemic) [Compound 69, 1-ethyl-N-(1-ethyl-1H-1,2,4-triazol-3-yl)-2-[hydroxy(phenyl)(pyridin-2-yl)methyl]-5-methoxy-1H-imidazo[4,5-b]pyridine-6-carboxamide]	1 to 10	0.01 to 1		1 to 10
CCc1c(C(O)(c2ccccc2)c2ccccc2)nc2cc(F)c(C(=O)Nc3cnn(CC)c3)cn12 [Compound 15, 3-Ethyl-7-fluoro-2-(hydroxy-diphenylmethyl)-imidazo[1,2-a]pyridine-6-carboxylic acid (1-ethyl-1H-pyrazol-4-yl)-amide]	10 to 100	10 to 100	A	
CCc1c(C(O)(c2ccccc2)c2ccn(C)n2)nc2cc(OC)c(C(=O)Nc3ncn(CC)n3)cn12 (single isomer, unassigned) [Compound 22, 3-Ethyl-2-[hydroxy-(1-methyl-1H-pyrazol-3-yl)-phenyl-methyl]-7-methoxy-imidazo[1,2-a]pyridine-6-carboxylic acid (1-ethyl-1H-[1,2,4]triazol-3-yl)-amide]	10 to 100	10 to 100	A	
CCn1cnc(NC(=O)c2cnc3nc(C(O)(c4ccccc4)c4ccccc4)n(CC)c3c2)n1 [Compound 111, 1-ethyl-N-(1-ethyl-1H-1,2,4-triazol-3-yl)-2-(hydroxydiphenylmethyl)-1H-imidazo[4,5-b]pyridine-6-carboxamide]	1 to 10	100 to 10000		100 to 10000
CCn1cnc(NC(=O)c2cc3c(nc2OC)nc(C(O)(c2ccccc2)c2cccs2)n3CC)n1 (racemic) [Compound 47, 1-ethyl-N-(1-ethyl-1H-1,2,4-triazol-3-yl)-2-[hydroxy(phenyl)(thiophen-2-yl)methyl]-5-methoxy-1H-imidazo[4,5-b]pyridine-6-carboxamide]	1 to 10	0.01 to 1		10 to 100
CCn1cnc(NC(=O)c2cc3c(nc2OC)nc(C(O)(c2ccccc2)c2ccccc2)n3CCO)n1 [Compound 50, N-(1-ethyl-1H-1,2,4-triazol-3-yl)-2-(hydroxydiphenylmethyl)-1-(2-hydroxyethyl)-5-methoxy-1H-imidazo[4,5-b]pyridine-6-carboxamide]	1 to 10	1 to 10		100 to 10000
